Patent US20130281398A1, “TREATMENT OF DISEASES BY EPIGENETIC REGULATION” (RVX Therapeutics Inc., priority 2012, published 2013)

Experiments:
Brd4 bromodomain 1 = target: T1, Brd4 bromodomain 1 (Homo sapiens, UniProt O60885); assay: TR-FRET inhibition of tetra-acetylated histone H4 binding to Brd4 bromodomain 1; settings: tetra-acetylated histone H4 peptide and Brd4 bromodomain 1, 2 hours at room temperature
T1 construct: Illustrative results with the first bromodomain of Brd4; made in house; host or cells: E. coli BL21(DE3)
Protocol: Proteins were cloned and overexpressed with a N-terminal 6×His tag, then purified by nickel affinity followed by size exclusion chromatography. Briefly, E. coli BL21(DE3) cells were transformed with a recombinant expression vector encoding N-terminally Nickel affinity tagged bromodomains from Brd2, Brd3, Brd4. Cell cultures were incubated at 37° C. with shaking to the appropriate density and induced overnight with IPTG. The supernatant of lysed cells was loaded onto Ni-IDA column for purification. Eluted protein was pooled, concentrated and further purified by size exclusion chromatography. Fractions representing monomeric protein are pooled, concentrated, aliquoted, and frozen at −80° C. for use in subsequent experiments.
Binding of tetra-acetylated histone H4 and BET bromodomains was confirmed by a Time Resolved Fluorescence Resonance Energy Transfer (TR-FRET) method. N-terminally His-tagged bromodomains (200 nM) and biotinylated tetra-acetylated histone H4 peptide (25-50 nM, Millipore) were incubated in the presence of Europium Cryptate-labeled streptavidin (Cisbio Cat. #610SAKLB) and XL665-labeled monoclonal anti-His antibody (Cisbio Cat. #61 HISXLB) in a white 96 well microtiter plate (Greiner). For inhibition assays, serially diluted test compound was added to these reactions in a 0.2% final concentration of DMSO. Final buffer concentrations were 30 mM HEPES pH 7.4, 30 mM NaCl, 0.3 mM CHAPS, 20 mM phosphate pH 7.0, 320 mM KF, 0.08% BSA). After 2 hours incubation at room temperature, the fluorescence by FRET was measured at 665 and 620 nm by a SynergyH4 plate reader (Biotek). The binding inhibitory activity was shown by a decrease in 665 nm fluorescence relative to 620 nm. IC50 values were determined from a dose response curve.

c-myc = assay: Inhibition of c-myc expression (mRNA, real-time PCR) in MV4-11 cells; type: cell-based; set-up: key: Active: Compounds with an IC50 value less than 30 uM were deemed to be active; settings: c-myc mRNA in human AML MV4-11 cells, 3 hours incubation
Protocol: MV4-11 cells (2.5×10^4 cells) were plated in 96 well U-bottom plates with test compound or DMSO (0.1%), and incubated for 3 hours at 37° C. Cells were then harvested by centrifugation, lysed, and mRNA was isolated using the mRNA catcher plus kit (Invitrogen). Reverse transcription of the mRNA and duplex amplification of the c-myc and cyclophilin cDNAs was performed using the RNA Ultrasense kit (Invitrogen) and a ViiA7 real-time PCR machine (Applied Biosystems). IC50 values were determined from a dose response curve.

Human AML MV-4-11 cells = assay: Inhibition of cell proliferation in human AML MV-4-11 cells; type: cell-based; set-up: key: Active: Compounds with an IC50 value less than 30 uM were deemed to be active; settings: 72 hours, CellTiter Aqueous One
Protocol: MV4-11 cells: 96-well plates were seeded with 5×10^4 cells per well of exponentially growing human AML MV-4-11 (CRL-9591) cells and immediately treated with two-fold dilutions of test compounds, ranging from 30 μM to 0.2 μM. Triplicate wells were used for each concentration, as well as a media only and three DMSO control wells. The cells and compounds were incubated at 37° C., 5% CO2 for 72 hours before adding 20 μL of the CellTiter Aqueous One Solution (Promega) to each well and incubating at 37° C., 5% CO2 for an additional 3-4 hours. The absorbance was taken at 490 nm in a spectrophotometer and the percentage of proliferation relative to DMSO-treated cells was calculated after correction from the blank well. IC50 were calculated using the GraphPad Prism software.

IL-6 = settings: in vivo; cited from earlier work
[1] = tested on: bacterial-induced inflammation and sepsis; settings: murine model; Lamotte et al. (2012); cited from earlier work
[2] = tested on: NUT (nuclear protein in testis) midline carcinoma (NMC); settings: murine xenograft models of NMC; Filippakopoulos et al. (2010); cited from earlier work
multiple myeloma = settings: associated with cell cycle arrest and cellular senescence, Delmore et al. (2011); cited from earlier work

Compound | FRET activity (<50 uM) (Brd4 bromodomain 1) | further results
COc1cc(OC)c2c(=O)[nH]c(-c3cc(C)c(CNC(C)=O)c(C)c3)nc2c1 [Example 32, N-(4-(5,7-dimethoxy-4-oxo-3,4-dihydroquinazolin-2-yl)-2,6-dimethylbenzyl)acetamide] | Active | c-myc activity (<30 uM) (c-myc): Inactive; cell proliferation activity (<30 uM) (Human AML MV-4-11 cells): Inactive
COc1cc(OC)c2c(=O)[nH]c(-c3cc(C)c(OCCNS(=O)(=O)C(C)C)c(C)c3)nc2c1 [Example 37, N-(2-(4-(5,7-dimethoxy-4-oxo-3,4-dihydroquinazolin-2-yl)-2,6-dimethylphenoxy)ethyl)propane-2-sulfonamide] | Active | 
COc1cc(OC)c2c(=O)[nH]c(-c3cc(C)c(OCCNC(C)C)c(C)c3)nc2c1 [Example 38, 2-(4-(2-(isopropylamino)ethoxy)-3,5-dimethylphenyl)-5,7-dimethoxyquinazolin-4(3H)-one] | Active | c-myc activity (<30 uM) (c-myc): Active; cell proliferation activity (<30 uM) (Human AML MV-4-11 cells): Active
COc1cc(OC)c2c(=O)[nH]c(-c3ccc(OCCNC(C)=O)c(C)c3)nc2c1 [Example 39, N-(2-(4-(5,7-dimethoxy-4-oxo-3,4-dihydroquinazolin-2-yl)-2-methylphenoxy)ethyl)acetamide] | Active | 
COc1cc(OC)c2c(=O)[nH]c(-c3cc(C)c(OCCN(C)C)c(C)c3)nc2c1 [Example 40, 2-(4-(2-(dimethylamino)ethoxy)-3,5-dimethylphenyl)-5,7-dimethoxyquinazolin-4(3H)-one] | Active | 
COc1cc(OC)c2c(=O)[nH]c(-c3cc(C)c(OCCN(C)C(C)=O)c(C)c3)nc2c1 [Example 41, N-(2-(4-(5,7-dimethoxy-4-oxo-3,4-dihydroquinazolin-2-yl)-2,6-dimethylphenoxy)ethyl)-N-methylacetamide] | Active | 
COc1cc(OC)c2c(=O)[nH]c(-c3cc(C)c(OCCNC=O)c(C)c3)nc2c1 [Example 42, N-(2-(4-(5,7-dimethoxy-4-oxo-3,4-dihydroquinazolin-2-yl) 2,6-dimethylphenoxy)ethyl)formamide] | Active | 
COc1cc(OC)c2c(=O)[nH]c(-c3cc(C)c(OCCN(C)C=O)c(C)c3)nc2c1 [Example 43, N-(2-(4-(5,7-dimethoxy-4-oxo-3,4-dihydroquinazolin-2-yl) 2,6-dimethylphenoxy)ethyl)-N-methylformamide] | Active | 
COc1cc(OC)c2c(=O)[nH]c(-c3cc(C)c(OCCNS(=O)(=O)N(C)C)c(C)c3)nc2c1 [Example 44, N-(2-(4-(5,7-dimethoxy-4-oxo-3,4-dihydroquinazolin-2-yl)-2,6-dimethylphenoxy)ethyl)dimethylamino-N-sulfonamide] | Active | 
COc1cc(OC)c2c(=O)[nH]c(-c3cc(C)c(OCCNC#N)c(C)c3)nc2c1 [Example 45, N-(2-(4-(5,7-dimethoxy-4-oxo-3,4-dihydroquinazolin-2-yl) 2,6-dimethylphenoxy)ethyl)cyanamide] | Active | 
COc1cc(OC)c2c(=O)[nH]c(-c3cc(C)c(OCCNc4cc(C)on4)c(C)c3)nc2c1 [Example 46, 2-(3,5-dimethyl-4-(2-(5-methylisoxazol-3-ylamino)ethoxy)phenyl)-5,7-dimethoxyquinazolin-4(3H)-one] | Active | 
COc1cc(OC)c2c(=O)[nH]c(-c3cc(C)c(OCCNc4ncccn4)c(C)c3)nc2c1 [Example 47, 2-(3,5-dimethyl-4-(2-(pyrimidin-2-ylamino)ethoxy)phenyl)-5,7-dimethoxyquinazolin-4(3H)-one] | Inactive | 
COc1cc(OC)c2c(=O)[nH]c(-c3cc(C)c(OCCNc4ccon4)c(C)c3)nc2c1 [Example 48, 2-(4-(2-(isoxazol-3-ylamino)ethoxy)-3,5-dimethylphenyl)-5,7-dimethoxyquinazolin-4(3H)-one] | Active | 
COc1cc(OC)c2c(=O)[nH]c(-c3cc(C)c(OCCNc4nc(OC)cc(OC)n4)c(C)c3)nc2c1 [Example 49, 2-(4-(2-(4,6-dimethoxypyrimidin-2-ylamino)ethoxy)-3,5-dimethylphenyl)-5,7-dimethoxyquinazolin-4(3H)-one] | Inactive | 
COc1cc(OC)c2c(=O)[nH]c(-c3cc(OC)c(CCCO)c(OC)c3)nc2c1 [Example 50, 2-[4-(3-hydroxy-propyl)-3,5-dimethoxyphenyl]-5,7-dimethoxy-3H-quinazolin-4-one] | Active | 
COc1cc(OC)c2c(=O)[nH]c(-c3ccc(CCCO)c(OC)c3)nc2c1 [Example 51, 2-[4-(3-hydroxy-propyl)-3-methoxy-phenyl]-5,7-dimethoxy-3H-quinazolin-4-one] | Active | 
COc1cc(OC)c2c(=O)[nH]c(-c3ccc4cc(CCO)[nH]c4c3)nc2c1 [Example 52, 2-[2-(2-hydroxyethyl)-1H-indol-6-yl]-5,7-dimethoxy-3H-quinazolin-4-one] | Active | 
COc1cc2c(cc1-c1c(C)noc1C)ncc1[nH]c(=O)n([C@H](C)c3ccccn3)c12 [I-BET151] |  | IL-6 expression (IL-6): decrease IL-6 expression; bacterial-induced inflammation and sepsis [1]: suppress bacterial-induced inflammation and sepsis
CCNC(=O)C[C@@H]1N=C(c2ccc(Cl)cc2)c2cc(OC)ccc2-n2c(C)nnc21 [I-BET] |  | IL-6 expression (IL-6): decrease IL-6 expression
Cc1sc2c(c1C)C(c1ccc(Cl)cc1)=N[C@@H](CC(=O)OC(C)(C)C)c1nnc(C)n1-2 [JQ1] |  | antitumor activity [2]: potent antitumor activity; antiproliferative effect (multiple myeloma): potent antiproliferator
